Results published in ChEMBL document CHEMBL5518218, “Discovery of Novel PD-L1 Small-Molecular Inhibitors with Potent In Vivo Anti-tumor Immune Activity” (J Med Chem, 2024).
The source made the active and inactive calls. The rule behind the calls is not given here.

How the values were obtained:
[1] = target: Programmed cell death protein 1/Programmed cell death 1 ligand 1 (Homo sapiens, UniProt Q9NZQ7); experiment: Inhibition of PD-1/PD-L1 interaction (unknown origin) incubated for 15 min by HTRF assay; assay type: protein-complex assay
[2] = Prodrug conversion in Sprague-Dawley rat assessed as Tmax of (2-(benzo[c][1,2,5]oxadiazol-5-ylmethoxy)-5-chloro-4-((2-fluoro-3'-(3-(4-hydroxypiperidin-1-yl)propoxy)-[1,1'-biphenyl]-3-yl)methoxy)benzyl)-D-serine at 9 mg/kg, iv measured upto 24 hrs by LC-MS/MS analysis; assay type: ADME, organism-based; conditions: in vivo
[3] = Prodrug conversion in Sprague-Dawley rat assessed as clearance of (2-(benzo[c][1,2,5]oxadiazol-5-ylmethoxy)-5-chloro-4-((2-fluoro-3'-(3-(4-hydroxypiperidin-1-yl)propoxy)-[1,1'-biphenyl]-3-yl)methoxy)benzyl)-D-serine at 9 mg/kg, iv measured upto 24 hrs by LC-MS/MS analysis; assay type: ADME, organism-based; conditions: in vivo
[4] = Prodrug conversion in Sprague-Dawley rat assessed as half life of (2-(benzo[c][1,2,5]oxadiazol-5-ylmethoxy)-5-chloro-4-((2-fluoro-3'-(3-(4-hydroxypiperidin-1-yl)propoxy)-[1,1'-biphenyl]-3-yl)methoxy)benzyl)-D-serine at 45 mg/kg measured upto 24 hrs by LC-MS/MS analysis; assay type: ADME, organism-based; conditions: in vivo, po
[5] = Prodrug conversion in Sprague-Dawley rat assessed as Tmax of (2-(benzo[c][1,2,5]oxadiazol-5-ylmethoxy)-5-chloro-4-((2-fluoro-3'-(3-(4-hydroxypiperidin-1-yl)propoxy)-[1,1'-biphenyl]-3-yl)methoxy)benzyl)-D-serine at 45 mg/kg, po measured upto 24 hrs by LC-MS/MS analysis; assay type: ADME, organism-based; conditions: in vivo
[6] = Prodrug conversion in Sprague-Dawley rat assessed as Cmax of (2-(benzo[c][1,2,5]oxadiazol-5-ylmethoxy)-5-chloro-4-((2-fluoro-3'-(3-(4-hydroxypiperidin-1-yl)propoxy)-[1,1'-biphenyl]-3-yl)methoxy)benzyl)-D-serine at 45 mg/kg, po measured upto 24 hrs by LC-MS/MS analysis; assay type: ADME, organism-based; conditions: in vivo
[7] = Prodrug conversion in Sprague-Dawley rat assessed as AUC (0 to t) of (2-(benzo[c][1,2,5]oxadiazol-5-ylmethoxy)-5-chloro-4-((2-fluoro-3'-(3-(4-hydroxypiperidin-1-yl)propoxy)-[1,1'-biphenyl]-3-yl)methoxy)benzyl)-D-serine at 45 mg/kg, po measured upto 24 hrs by LC-MS/MS analysis; assay type: ADME, organism-based; conditions: in vivo
[8] = Prodrug conversion in Sprague-Dawley rat assessed as oral bioavailability of (2-(benzo[c][1,2,5]oxadiazol-5-ylmethoxy)-5-chloro-4-((2-fluoro-3'-(3-(4-hydroxypiperidin-1-yl)propoxy)-[1,1'-biphenyl]-3-yl)methoxy)benzyl)-D-serine at 45 mg/kg measured upto 24 hrs by LC-MS/MS analysis; assay type: ADME, organism-based; conditions: in vivo
[9] = Prodrug conversion in C57BL/6 mouse assessed as half life of (2-(benzo[c][1,2,5]oxadiazol-5-ylmethoxy)-5-chloro-4-((2-fluoro-3'-(3-(4-hydroxypiperidin-1-yl)propoxy)-[1,1'-biphenyl]-3-yl)methoxy)benzyl)-D-serine at 2 mg/kg, iv measured upto 24 hrs by LC-MS/MS analysis; assay type: ADME, organism-based; conditions: in vivo
[10] = Prodrug conversion in C57BL/6 mouse assessed as Tmax of (2-(benzo[c][1,2,5]oxadiazol-5-ylmethoxy)-5-chloro-4-((2-fluoro-3'-(3-(4-hydroxypiperidin-1-yl)propoxy)-[1,1'-biphenyl]-3-yl)methoxy)benzyl)-D-serine at 2 mg/kg, iv measured upto 24 hrs by LC-MS/MS analysis; assay type: ADME, organism-based; conditions: in vivo
[11] = Prodrug conversion in C57BL/6 mouse assessed as Cmax of (2-(benzo[c][1,2,5]oxadiazol-5-ylmethoxy)-5-chloro-4-((2-fluoro-3'-(3-(4-hydroxypiperidin-1-yl)propoxy)-[1,1'-biphenyl]-3-yl)methoxy)benzyl)-D-serine at 2 mg/kg, iv measured upto 24 hrs by LC-MS/MS analysis; assay type: ADME, organism-based; conditions: in vivo
[12] = Prodrug conversion in C57BL/6 mouse assessed as AUC (0 to t) of (2-(benzo[c][1,2,5]oxadiazol-5-ylmethoxy)-5-chloro-4-((2-fluoro-3'-(3-(4-hydroxypiperidin-1-yl)propoxy)-[1,1'-biphenyl]-3-yl)methoxy)benzyl)-D-serine at 2 mg/kg, iv measured upto 24 hrs by LC-MS/MS analysis; assay type: ADME, organism-based; conditions: in vivo
[13] = Prodrug conversion in C57BL/6 mouse assessed as Tmax of (2-(benzo[c][1,2,5]oxadiazol-5-ylmethoxy)-5-chloro-4-((2-fluoro-3'-(3-(4-hydroxypiperidin-1-yl)propoxy)-[1,1'-biphenyl]-3-yl)methoxy)benzyl)-D-serine at 10 mg/kg, po measured upto 24 hrs by LC-MS/MS analysis; assay type: ADME, organism-based; conditions: in vivo
[14] = Prodrug conversion in C57BL/6 mouse assessed as Cmax of (2-(benzo[c][1,2,5]oxadiazol-5-ylmethoxy)-5-chloro-4-((2-fluoro-3'-(3-(4-hydroxypiperidin-1-yl)propoxy)-[1,1'-biphenyl]-3-yl)methoxy)benzyl)-D-serine at 10 mg/kg, po measured upto 24 hrs by LC-MS/MS analysis; assay type: ADME, organism-based; conditions: in vivo
[15] = Prodrug conversion in C57BL/6 mouse assessed as AUC (0 to t) of (2-(benzo[c][1,2,5]oxadiazol-5-ylmethoxy)-5-chloro-4-((2-fluoro-3'-(3-(4-hydroxypiperidin-1-yl)propoxy)-[1,1'-biphenyl]-3-yl)methoxy)benzyl)-D-serine at 10 mg/kg, po measured upto 24 hrs by LC-MS/MS analysis; assay type: ADME, organism-based; conditions: in vivo
[16] = Prodrug conversion in C57BL/6 mouse assessed as oral bioavailability of (2-(benzo[c][1,2,5]oxadiazol-5-ylmethoxy)-5-chloro-4-((2-fluoro-3'-(3-(4-hydroxypiperidin-1-yl)propoxy)-[1,1'-biphenyl]-3-yl)methoxy)benzyl)-D-serine at 10 mg/kg measured upto 24 hrs by LC-MS/MS analysis; assay type: ADME, organism-based; conditions: in vivo
[17] = Lipophilicity, log D of the compound at pH 7.4; assay type: physicochemical; conditions: buffer
[18] = Water solubility of the compound; assay type: physicochemical
[19] = Acute toxicity in mouse assessed as mortality at 1000 mg/kg, po administered as single dose for 14 days; assay type: organism-based; conditions: in vivo, 336 h, time 14 day
MC-38 [20] = experiment: Antitumor activity against mouse MC38 cells implanted in po dosed C57BL/6J mouse assessed as reduction in tumor growth; assay type: functional, organism-based; conditions: dose 5-25 mg/kg
MC-38 [21] = experiment: Antitumor activity against mouse MC38 cells implanted in C57BL/6J mouse assessed as tumor growth inhibition at 5 mg/kg, po measured for 20 days; assay type: functional; conditions: MC-38, 480 h, time 20 day, read-out: TGI
CT26 [22] = experiment: Antitumor activity against mouse CT26 cells implanted in BALB/c mouse assessed as tumor growth inhibition at 10 mg/kg, ip measured at 8 to 14 days; assay type: functional; conditions: time 8-14 day, read-out: TGI
CT26 [23] = experiment: Antitumor activity against mouse CT26 cells implanted in BALB/c mouse assessed as increase in INF-gamma level at 25 mg/kg, ip measured for 20 days; assay type: functional, organism-based; conditions: time 20.0 day
MC-38 [24] = experiment: Cytotoxicity against mouse MC38 cells assessed as effect on cell viability at 0.07 to 150 uM incubated for 48 hrs by CCK-8 assay; assay type: functional, cell-based; conditions: dose 0.07-150 µM

Chain of Programmed cell death protein 1/Programmed cell death 1 ligand 1 (Q15116 whole entry): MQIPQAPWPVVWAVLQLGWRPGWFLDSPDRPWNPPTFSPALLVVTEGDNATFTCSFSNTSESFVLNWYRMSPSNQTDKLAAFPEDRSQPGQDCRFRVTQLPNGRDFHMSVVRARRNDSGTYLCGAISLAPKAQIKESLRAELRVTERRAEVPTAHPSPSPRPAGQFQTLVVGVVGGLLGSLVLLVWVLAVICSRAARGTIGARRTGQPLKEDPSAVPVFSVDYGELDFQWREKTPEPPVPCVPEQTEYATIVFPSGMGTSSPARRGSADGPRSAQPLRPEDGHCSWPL
Chain of Programmed cell death protein 1/Programmed cell death 1 ligand 1 (Q9NZQ7 whole entry): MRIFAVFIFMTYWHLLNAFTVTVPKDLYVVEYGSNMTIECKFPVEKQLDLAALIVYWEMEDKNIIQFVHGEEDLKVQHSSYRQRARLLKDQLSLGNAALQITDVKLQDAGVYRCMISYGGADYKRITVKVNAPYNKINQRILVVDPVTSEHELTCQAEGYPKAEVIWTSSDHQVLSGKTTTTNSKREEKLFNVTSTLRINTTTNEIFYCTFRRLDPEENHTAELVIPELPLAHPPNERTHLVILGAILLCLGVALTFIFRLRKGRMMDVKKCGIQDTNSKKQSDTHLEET

For `CCOC(=O)[C@@H](CO)NCc1cc(Cl)c(OCc2cccc(-c3cccc(OCCCN4CCC(O)CC4)c3)c2F)cc1OCc1ccc2nonc2c1.Cl.Cl`, the IC50 [1] was 786 nM, the Tmax [2] was 4.8 min and the CL [3] was 23.77 mL/min/kg. It also gave a t1/2 [4] of 4.3 h, a Tmax [5] of 4 h and a Cmax [6] of 49.8 ng/mL. The AUCt [7] was 405.6 ng·h/mL, the F [8] was 3.4% and the t1/2 [9] was 1.7 h. It also gave a Tmax [10] of 4.8 min, a Cmax [11] of 872.3 ng/mL and an AUCt [12] of 531.6 ng·h/mL. The Tmax [13] was 0.7 h, the Cmax [14] was 255.7 ng/mL and the AUCt [15] was 315.6 ng·h/mL. For the same compound, the F [16] was 11.5%, the logD [17] was 1.59 and the solubility [18] was 9.52 µM. The Activity [19] was “Non-Toxic”, the Activity (MC-38 [20]) was “Dose-Dependent Effect” and the inhibition in vivo at 5 mg/kg (MC-38 [21]) was 49.2%. For the same compound, the inhibition in vivo at 10 mg/kg (CT26 [22]) was 21.9%, the Activity (CT26 [23]) was “Active” and the Activity (MC-38 [24]) was “inactive”.
